Patent US9540412B2, “Methods of preparing targeted aptamer prodrugs” (Albert Einstein College of Medicine, Inc., priority 2010, dated 2017)
Read-outs that look alike come from different tables or passages of the source.

Tests used:
[1] = tested on: Min6B1 cells; experiment: Flow cytometry cell labeling of Min6B1 cells; assay type: cell-based, mouse; conditions: streptavidin phycoerytherin
[2] = biological target: T1, human protein tyrosine kinase-7 (Homo sapiens, UniProt Q13308); experiment: Binding of fluorescently labeled scgc8 aptamer prodrugs to target cells (FIG. 4A); conditions: fluorescently labeled aptamers
T1 construct: This protein is overexpressed on a variety of leukemia cell lines; endogenous in cells; host or cells: 'target cells'
T1 sequence (Q13308 31-1070): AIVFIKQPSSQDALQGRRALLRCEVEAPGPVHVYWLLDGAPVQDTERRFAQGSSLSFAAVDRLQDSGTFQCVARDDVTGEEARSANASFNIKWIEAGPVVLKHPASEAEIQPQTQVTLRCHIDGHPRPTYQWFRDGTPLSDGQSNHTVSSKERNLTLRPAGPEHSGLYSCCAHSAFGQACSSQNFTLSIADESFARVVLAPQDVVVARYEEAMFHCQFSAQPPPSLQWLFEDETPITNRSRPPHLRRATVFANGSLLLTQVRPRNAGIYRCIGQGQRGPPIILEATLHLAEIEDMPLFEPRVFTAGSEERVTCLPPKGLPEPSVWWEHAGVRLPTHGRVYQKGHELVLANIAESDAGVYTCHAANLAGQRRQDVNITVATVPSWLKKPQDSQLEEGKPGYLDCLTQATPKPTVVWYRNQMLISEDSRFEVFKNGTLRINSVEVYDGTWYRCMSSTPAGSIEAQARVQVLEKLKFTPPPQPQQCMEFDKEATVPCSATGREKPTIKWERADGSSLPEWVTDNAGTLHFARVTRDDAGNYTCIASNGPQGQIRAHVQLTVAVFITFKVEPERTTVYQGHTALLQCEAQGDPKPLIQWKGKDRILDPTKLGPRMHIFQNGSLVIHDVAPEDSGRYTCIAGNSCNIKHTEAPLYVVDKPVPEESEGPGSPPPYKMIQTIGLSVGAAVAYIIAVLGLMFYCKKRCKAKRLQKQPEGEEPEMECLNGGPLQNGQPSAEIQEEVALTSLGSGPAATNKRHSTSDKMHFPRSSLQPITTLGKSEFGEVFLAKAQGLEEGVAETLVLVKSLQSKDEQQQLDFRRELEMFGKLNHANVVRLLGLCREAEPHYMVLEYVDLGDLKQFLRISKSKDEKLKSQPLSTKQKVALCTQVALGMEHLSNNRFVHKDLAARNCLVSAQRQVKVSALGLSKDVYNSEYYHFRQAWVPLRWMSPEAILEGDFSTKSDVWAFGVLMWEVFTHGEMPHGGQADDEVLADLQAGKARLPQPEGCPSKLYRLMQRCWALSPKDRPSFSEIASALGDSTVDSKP
Text: (§1) In addition to adding drugs to aptamers by hybridization, a series of aptamer-prodrugs has been synthesized using a DNA aptamer (scgc8) which targets human protein tyrosine kinase-7. […] To stabilize these aptamers against serum nucleases, the oligonucleotides were generated bearing a 3′ inverted thymidine residue which dramatically stabilizes the serum half-life of DNA molecules to ˜20 hrs (Dass et al. 2002).
A ssDNA aptamer that targets protein kinase 7 was selected by Shanggun et al (J Proteome Res, 2008 7:2133). The aptamer, scgc.8, was adapted for the delivery of floxuridine (5FdU) by site specific incorporation this nucleoside analog drug during chemical synthesis. Aptamer prodrugs were synthesized bearing a 5′ fluorescein molecule and a 3′ inverted thymiding residue to enhance serum stability. The sequence of the parental aptamer and the aptamer prodrugs are: Scgc.8 […] (SEQ ID NO:8); Scgc.8-5 AU*CU*AACU*[…]*U*AGA (SEQ ID NO:9); Scgc.8-9 AU*CU*AACU*GCU*GCGCCGCCGGGAAAAU*ACU*GU*ACGGU*U*AGA (SEQ ID NO:10). U* denotes 5FdU.

[3] = tested on: Jurkat cells; experiment: Jurkat cell growth inhibition / toxicity (FIG. 4B); assay type: cell-based, human; conditions: 500 nM, regular media (RPMI+10% FBS), 3' inverted thymidine
Text: as §1

[4] = tested on: LNCaP cells; conditions: unconjugated toxin; read-out: IC50 (toxicity); cited from earlier work
[5] = tested on: HeLa cells; experiment: HeLa cell viability (alamarBlue) after aptamer-prodrug treatment; assay type: cell-based, human; conditions: 50 nM aptamer, 4 days, serum free media (DMEM containing 1% Nutridoma), FIG. 3
Text: To test the feasibility of this strategy for delivery of nucleoside analog drugs, two different anti-hTfR aptamers (designated min8 and min9.1) were extended with a 24 nucleotide extension. A complementary DNA oligonucleotide (FdC-oligo) was then synthesized to this region in which all cytosine residues had been replaced with the nucleoside analog 5F-deoxycytidine (FdC), a potent inhibitor of methyltransferase activity (Beumer et al. 2008). The aptamer-produgs were then assembled by mixing the drug oligo at a 1:1 molar ratio with one of two different minized anti-hTfR aptamers, min8, min9.1, or a non-targeting control aptamer (cntrl) in PBS and thermally equilibrated by heating at 70° C. Aptamer function following hybridization was confirmed by FACS using a FITC labeled version of the oligonucleotide.
The ability of the assembled anti-hTfR aptamer-prodrugs to deliver therapeutic cargo to cells was tested on HeLa cells. To avoid potential complications from degradation of the FdC-oligo (which is DNA and thus readily susceptible to degradation), these assays were performed in serum free media (DMEM containing 1% Nutridoma). Cells were incubated with increasing concentrations of either free drug, anti-hTfR aptamer-prodrugs or controls for 4 days, after which cell viability was assayed using the chromogenic substrate alamarBlue. […]

[6] = tested on: mouse (fibroblasts, brain endothelial, skeletal and myocardial muscles) and human (cervical and prostate cancer) cell lines; experiment: Specificity studies on additional mouse and human cell lines; assay type: cell-based
[7] = tested on: Min6B1 cells; experiment: Internalization into Min6B1 cells (fluorescence microscopy); assay type: cell-based, mouse
Description: Aptamers that target and are internalized by beta cells were identified by performing an internalization selection against the glucose-responsive immortalized mouse beta cell line Min6B1. As in the selection against the transferrin receptor described above, in order to drive the selection towards molecules that are internalized, following incubation with the RNA library, target cells were washed extensively and treated with trypsin and ribonuclease to remove any surface bound RNA. Following recovery of total RNA, aptamers were amplified, transcribed and the process was repeated.
When similar experiments were conducted with the unselected library, little or no fluorescent signal was observed.

Q: With “C1.min: minimized core of C1, SEQ ID NO:12 (UGCGAAUCCUCUAUCCGUUCUAAACGCUUUAUGAUUUCGCA; listed as RNA, chemistry not given here)” as the molecule, how does the cell labeling [1] read?
A: The cell labeling was “labeled cells as efficiently as the full length clone”.

Q: Which “binding to target cells” value [2] does the source give for “scgc8-9: scgc8 with all 9 thymidine residues replaced with floxuridine, SEQ ID NO:10 (AUCUAACUGCTGCGCCGCCGGGAAAATACTGTACGGUUAGA; all 9 thymidines replaced with floxuridine, chemistry not fully specified)” here?
A: Its value is “still bound target cells better than a scrambled control sequence (cntrl-9) but less efficiently than the non-drug containing aptamer (scgc8)”.

Q: And the “inhibition of cell growth / toxicity” value [3]?
A: The value was “inhibited cell growth as efficiently as free drug alone”.

Q: With gelonin as the molecule, how does the IC50 [4] read?
A: The IC50 was roughly 5 µM.

Q: What does the source list for “scgc8-5: scgc8 with 5 of 9 thymidine residues replaced with floxuridine, SEQ ID NO:9 (AUCUAACUGCTGCGCCGCCGGGAAAATACTGTACGGUUAGA; floxuridine substitutions, chemistry not fully specified)”?
A: binding to target cells [2]: still bound target cells better than a scrambled control sequence (cntrl-9) but less efficiently than the non-drug containing aptamer (scgc8); inhibition of cell growth / toxicity [3]: considerable lower levels of toxicity

Q: Which cell viability [5] does the source give for `Nc1nc(=O)n([C@H]2C[C@H](O)[C@@H](CO)O2)cc1F` [free drug, 5F-deoxycytidine] here?
A: The cell viability was “loss of cell viability”.

B1: C1: 2′F modified internalizing RNA selected against Min6B1 cells, SEQ ID NO:11 (nucleic acid)
chain: GGGAGGUGAAUGGUUCUACGAUAUUGCGAAUCCUCUAUCCGUUCUAAACGCUUUAUGAUUUCGCAUAGUCCUUACAUGCGAGAUGACCACCGUAAUUGAAUUAAAUGCCCGCCAUGACCAG
modifications: 2'-fluoro modified RNA library, positions of 2'-F not given here
Q: For B1, which cell labeling [1] is on record?
A: Its cell labeling is “significant cell labeling”.

Q: What about the “cell specificity of targeting / internalization” value [6] of the same molecule?
A: Its value is “targets several unrelated cell lines across different species”.

Q: What about the “cell specificity of targeting / internalization” value ([6]; listed as dominant clone) of the same molecule?
A: Its value is “not specific for beta cells”.

Q: What about the internalization [7] of the same molecule?
A: Its internalization is “not only binds to, but is also internalized by this cell type”.

Q: What about the internalization ([7]; listed as dominant clone) of the same molecule?
A: The internalization was “readily internalized by Min6B1 cells”.
